Experimental data from publication PMC7908975, “Antioxidant and Anti-Inflammatory Activity of Citrus Flavanones Mix and Its Stability after In Vitro Simulated Digestion” (Antioxidants, 2021).

Experiments:
[1] = parameters: method as in PMID 19728713; conditions: as compounds of a bitter orange extract; cited from earlier work
[2] = Trolox Equivalent Antioxidant Capacity (TEAC) assay
Description: TEAC assay was carried out according to Bazzicalupo et al.. […] Fifty microliters of each flavanone (2.0–64 µM) or trolox as reference compound (2.50–20 µM) were added to 1 mL of the TEAC reagent and incubated at RT in the dark for 6 min. The absorbance was recorded at 734 nm. Based on the results of the preliminary antioxidant and anti-inflammatory screening (see Section 2.2), the most powerful flavanones (neohesperidin, hesperidin, neoeriocitrin, eriocitrin, and hesperetin) were selected in order to prepare a flavanones mix (FM), which was, at first instance, investigated by the same in vitro colorimetric assays (see Section 2.2) in order to evaluate its potency with respect to the single flavanones and to elucidate potential synergistic mechanisms. The following final concentration range of FM were used: FRAP (2.50–20 µM), ORAC (0.08–0.60 µM), TEAC (0.31–2.50 µM), DPPH (1.25–10 µM), ADA (5.0–40 µM), and APA (2.50–20 µM). After that, being the results of the preliminary antioxidant and anti-inflammatory screening of FM very promising, an appropriate concentration was chosen to proceed with the subsequent analyses. […]

[3] = In vitro simulated human gastric and duodenal digestion with LC-DAD-ESI-MS/MS quantification; format: in vitro ADME; conditions: with respect to starting FM 10 µM; for DFM (µM): flavanone in duodenal digested flavanones mix: after gastric 2 h plus duodenal 4 h digestion, 37 °C; for GFM (µM): flavanone in gastric digested flavanones mix: after gastric digestion 2 h, pH 2.5, 37 °C
Excerpt: Based on the results of the preliminary antioxidant and anti-inflammatory screening (see Section 2.2), the most powerful flavanones (neohesperidin, hesperidin, neoeriocitrin, eriocitrin, and hesperetin) were selected in order to prepare a flavanones mix (FM), which was, at first instance, investigated by the same in vitro colorimetric assays (see Section 2.2) in order to evaluate its potency with respect to the single flavanones and to elucidate potential synergistic mechanisms. The following final concentration range of FM were used: FRAP (2.50–20 µM), ORAC (0.08–0.60 µM), TEAC (0.31–2.50 µM), DPPH (1.25–10 µM), ADA (5.0–40 µM), and APA (2.50–20 µM). After that, being the results of the preliminary antioxidant and anti-inflammatory screening of FM very promising, an appropriate concentration was chosen to proceed with the subsequent analyses. In particular, the FM was prepared on the assumption that digested sample, which would then be applied to the Caco-2 cells for the anti-inflammatory experiments, had to contain an equimolar concentration of the five most powerful flavanones (neohesperidin, hesperidin, neoeriocitrin, eriocitrin, and hesperetin) equal to 10 µM, which represents the mean efficacy concentration taking into account the IC50 values obtained in the preliminary antioxidant and anti-inflammatory screening of the FM. At this purpose, stock solutions (14 mM) of flavanones in DMSO were mixed and diluted 10-fold with Milli-Q water to obtain the 1.4 mM FM, which was used to carried out the in vitro simulated human digestion. In vitro gastric and duodenal digestion of FM was carried out according to Trombetta et al. with some modifications. FM solution (1.5 mL) (see Section 2.3), has been dissolved in 7.5 mL of simulated gastric solution containing 0.127 mM egg-phosphatidylcholine and adjusting the pH to 2.5, by 1 M HCl. Gastric pepsin and lipase (9000 U/mL and 60 U/mL, respectively) were added to the mixture starting the gastric digestion phase, which was protracted for 2 h at 37 °C, incubating under continuous stirring (170 rpm) by an Innova 4000 Benchtop Incubator Shaker (New Brunswick Scientific, Edison, NJ, USA). The gastric phase was stopped by the addition of 1M NaOH in order to reach a pH of 7.5, and 6 mL of the previous solution passed to the duodenal digestion phase. Duodenal solution was prepared by adding 2.10 mL of simulated bile solution (6.5 mM phosphatidylcholine, 4 mM cholesterol, 12.5 mM sodium taurocholate, and 12.5 mM sodium glycodeoxycholate) to 5.9 mL of simulated pancreatic juice containing pancreatic lipase (590 U/mL), colipase (3.2 µg/mL), trypsin (11 U/mL), α-chymotrypsin (24 U/mL), and α-amylase (300 U/mL). The duodenal mixture was incubated for 4 h under continuous stirring at 37 °C as described above. At the end, both gastric and duodenal digesta were immediately stored at −80 °C until the subsequent analyses. For quali-quantitative determination of flavanones, gastric and duodenal digesta were extracted with methanol (1:2, v/v) by mixing for 3 min. After that, samples were centrifuged at 12,000× g for 10 min, filtered by a 0.22 µm nylon syringe filter and injected into a liquid chromatograph equipped with a diode-array detector and mass spectrophotometer (LC-DAD-MS system, Agilent technologies, Santa Clara, CA, USA). The chromatographic separation was obtained using a reverse phase column Luna Omega PS C18 (150 × 2.1 mm, 5 µm; Phenomenex, Torrance, CA, USA) by using solvent A (formic acid 0.1% v/v) and solvent B (acetonitrile) as mobile phase according to the following elution gradient: 0 min, 0% B; 3–9 min, 3% B; 9–24 min, 12% B; 24–30 min, 20% B; 30–33 min, 33–43 30% B; 43–66 min 50% di B; 66–81 min 60% di B; 81–86 min 0% di B; 86–90 min 0% di B. […] UV–Vis spectra of flavanones were recorded (190–400 nm) and chromatograms were acquired at 292 nm, maximum flavanones absorption wavelength. […]

[4] = tested on: IL-6 release in Caco-2 cells; test: IL-6 release, IL-1β stimulated Caco-2 transwell model; format: cell-based, human; conditions: 24 h
Description: (§1) Experiments were carried out on transwell models (CacoReady™, Readycell, Barcelona, Spain) consisting of Caco-2 cells (8.5 × 10^4 cells/cm^2, passage number 41–58) seeded on polyester microporous filters in 24-well HTS plates (6.5 mm diameter, 0.33 cm^2 area and 0.4 µm of pore size) (Corning Incorporated, Corning, NY, USA). Completed Dulbecco’s Modified Eagle Medium (DMEM), prepared according to Denaro et al., was added on the apical (0.3 mL) and basolateral side (0.9 mL) of the Transwell® insert. After 21 days of culture, Caco-2 cells were completely differentiated and polarized, such that their phenotype resembled the morphological and functional features of mature enterocytes lining the small intestine.
(§2) Before starting with the anti-inflammatory experiments, the monolayer integrity was checked by measuring the trans-epithelial electrical resistance (TEER) with a Millicell® ERS-2 V/ohmmeter (Merck Millipore, Darmstadt, Germany) equipped with STX 100C electrode (World Precision Instruments, Sarasota, FL, USA). Caco-2-plated filters with epithelial resistance ≥800 Ω/cm^2 were used.
(§3) The anti-inflammatory activity of FM and digested FM (DFM) was evaluated on Caco-2 transwell model, according to Tesoriere et al., with some modifications. Briefly, 1.4 mM FM (see Section 2.3) was diluted 140 times in completed DMEM, obtaining a 10 µM FM (DMSO < 0.1%). […]
(§4) IL-6 and IL-8 release were measured by high-sensitivity human ELISA kits (Cymax IL-6 YIF-LF-EK0260 and Cymax IL-8YIF-LF-EK0262, Ab Frontiers, Adipogen Corporation, 9853 Pacific Heights Blvd., Suite L San Diego, CA, USA) according to the manufacturer’s recommendations, whereas NO release was estimated according to Tesoriere et al. by Griess reaction. […] Absorbance was recorded at 550 nm using a microplate reader (Multiskan GO, Thermo Scientific, Waltham, MA, USA). Results were expressed as µM NO extrapolating the results by a reference standard curve of sodium nitrite (1.0–15 µM).

[5] = tested on: NO release in Caco-2 cells; test: NO release (Griess reaction), IL-1β stimulated Caco-2 transwell model; format: cell-based, human; conditions: 24 h
Description: as §1, §2, §3, §4

[6] = tested on: IL-8 release in Caco-2 cells; test: IL-8 release, IL-1β stimulated Caco-2 transwell model; format: cell-based, human; conditions: 24 h
Description: as §1, §2, §3, §4

[7] = 10 µM co-treatment with IL-1β 25 ng/mL

For COc1ccc([C@@H]2CC(=O)c3c(O)cc(O[C@@H]4O[C@H](CO[C@@H]5O[C@@H](C)[C@H](O)[C@@H](O)[C@H]5O)[C@@H](O)[C@H](O)[C@H]4O)cc3O2)cc1O [Hesperidin, hesperetin-7-O-rutinoside], which “stability after simulated in vitro digestion” value [1] is on record?
Its value is “stable after simulated in vitro digestion”.

And the “IC50 in comparison with reference standard trolox, TEAC” value [2]?
Its value is “a behavior comparable with the reference standard”.

What about the “DFM (µM): flavanone in duodenal digested flavanones mix” value [3] of the same compound?
Its value is 9.86 ± 0.13 µM.

And the “GFM (µM): flavanone in gastric digested flavanones mix” value [3]?
Its value is 9.95 ± 0.04 µM.

For “IL-1β: well-known pro-inflammatory agent used at 25 ng/mL to trigger inflammation (CTR+)”, which “increase in IL-6 vs CTR−” value ([4]; 25 ng/mL) is on record?
Its value is ~ 7 folds.

And the “increase in NO release vs CTR−” value ([5]; 25 ng/mL)?
Its value is ~ 2.5 folds.

And the “increase in IL-8 vs CTR−” value ([6]; 25 ng/mL)?
The value was ~ 27 folds.

Which “DFM (µM): flavanone in duodenal digested flavanones mix” value [3] does the source give for C[C@@H]1O[C@@H](OC[C@H]2O[C@@H](Oc3cc(O)c4c(c3)O[C@H](c3ccc(O)c(O)c3)CC4=O)[C@H](O)[C@@H](O)[C@@H]2O)[C@H](O)[C@H](O)[C@H]1O [Eriocitrin, eriodictyol-7-O-rutinoside] here?
Its value is 8.80 ± 0.03 µM.

And the “GFM (µM): flavanone in gastric digested flavanones mix” value [3]?
Its value is 9.05 ± 0.12 µM.

With C[C@@H]1C[C@H]2[C@@H]3CCC4=CC(=O)C=C[C@]4(C)[C@@]3(F)[C@@H](O)C[C@]2(C)[C@@]1(O)C(=O)CO [Dex, dexamethasone] as the compound, how does the “pro-inflammatory activity, IL-6 release vs CTR−” value ([4]; 10 µM alone, without IL-1β) read?
Its value is “did not show any pro-inflammatory activity”.

What about the “IL-6 release with respect to positive control (CTR+)” value [4, 7] of the same compound?
The value was “statistically significant decrease (p < 0.001)”.

And the “pro-inflammatory activity, NO release vs CTR−” value ([5]; 10 µM alone, without IL-1β)?
Its value is “did not show any pro-inflammatory activity”.

And the “inhibition of NO release” value [5, 7]?
The value was ~16%.

And the “pro-inflammatory activity, IL-8 release vs CTR−” value ([6]; 10 µM alone, without IL-1β)?
Its value is “did not show any pro-inflammatory activity”.

What about the “inhibition of IL-8 release” value [6, 7] of the same compound?
The value was ~66%.
